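Protocol summary: plate cells (96-well), add compound at 5 concentrations, incubate 48 h, interpolate endpoints linearly. GI50 = concentration required for 50% inhibition of growth. The concentration for full growth arrest is given as TGI.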

For this test, the system named is MDA-MB-468 breast. Nature of the test: inhibition of tumour cell growth, NCI panel, 48 h.
Consider `COc1c(B(O)O)cc(F)cc1-c1nc2ccc3[nH]ncc3c2c2c1CCCC2`, for which the GI50 was 1510 nM and the TGI worked out at 4210 nM.
With `CC(C)(C)c1ccc(NS(=O)(=O)c2ccc3nc(NC(=O)c4cnccn4)[nH]c3c2)cc1`, the GI50 was 712 nM and the TGI came to 4270 nM.
As for `O=c1ccc2nc(-c3ccccn3)nn(-c3ccccc3)c-2c1`, the GI50 was 1440 nM and the TGI is 3450 nM.
In the same order, the values of `Cc1cc(Nc2cc(N)ncn2)c(=O)n2c1C(=O)NC21CCCCC1` are 94900 nM and over 100000 nM.
In turn, `CCN(Cc1c(Cl)cccc1Cl)c1ccc(CO)c(Cl)c1` had a TGI of 33 nM.
In the case of `CC(=O)c1cc(O)c2ccccc2c1O`, the GI50 is 17500 nM and the TGI is 33400 nM.
For the molecule `C[C@@H]1COCCN1c1cc(C2(O)C[C@H]3CC[C@@H](C2)O3)c2cnn(-c3ccn[nH]3)c2n1` (some centres not stated), the GI50 was 113 nM and the TGI came out at 545 nM.
In the same order, the values of `CC[C@H](C)C(=O)O[C@H]1C[C@H](O)C=C2C=C[C@H](C)[C@H](CC[C@@H](O)C[C@@H](O)CC(=O)O)[C@H]21` are over 100000 nM and over 100000 nM.
For the molecule `CC(=C/c1ccccc1)/C=C1/NC(=S)N(/C=C2\C(=O)Oc3ccccc3C2=O)C1=O`, the GI50 was 26900 nM and the TGI was over 100000 nM.
With `COc1ccc2nc3cc(Cl)ccc3c(NCCNc3c4ccc(Cl)cc4nc4ccc(OC)cc34)c2c1`, the GI50 is 1800 nM and the TGI amounted to 3780 nM.
`CC1(C)C(=O)/C(=C\c2cccnc2)C[C@]2(C)[C@H]3CC[C@@H]4[C@@H](C(=O)/C=C/c5ccncc5)CC[C@@]4(C)[C@]3(C)CC[C@@H]12`: the GI50 was 1720 nM and the TGI amounted to 3670 nM.
In the same order, the values of `Cn1cc(C2=C(N3CCOCC3)C(=O)NC2=O)c2ccccc21` are over 25000 nM and over 25000 nM.
In the same order, the values of `COc1cc(-c2csc(NC(=O)Nc3cc(Cl)cc(Cl)c3)n2)cc(OC)c1OC` are 1670 nM and 3820 nM.
Turning to `Cc1ccc(-c2cc(O)c(-c3ccc(C)cc3C)cc2O)c(C)c1`, the GI50 was 1750 nM and the TGI stood at 13500 nM.
As to `COc1ccc2ccc3oc([N+](=O)[O-])cc3c2c1`, the GI50 is 168 nM and the TGI stood at 381 nM.
On to `Cc1cccc(Cc2cnc(NC(=O)CCc3ccc(C)o3)s2)c1`, for which the GI50 is 112 nM and the TGI turned out to be 6560 nM.
Consider `Cc1c(Cl)cccc1NC(=O)c1sc2nc3c(cc2c1N)CCCCC3`, for which the GI50 is 165 nM and the TGI was 29600 nM.
As for `COc1ccc(-c2nn(-c3ccc(NC(=O)Nc4ccc(Cl)c(C(F)(F)F)c4)cc3)cc2-c2ccncc2)cc1Cl`, the GI50 is 1180 nM and the TGI came to 3110 nM.
In the case of `COc1ccc(Cn2cc3c(c2-c2cc(OC)c(OC)c(OC)c2)CCc2cnoc2-3)cc1`, the GI50 is 171 nM and the TGI amounted to 622 nM.
`C=CC(COC(c1ccccc1)(c1ccccc1)c1ccccc1)N(CC)CC` (configuration not stated): the GI50 was 2430 nM and the TGI came to 6750 nM.
In the same order, the values of `CNCCN=c1ccc2c3c1c(O)c1c(O)ccc(=O)c1c3[nH]n2CCNCCO` are 63.4 nM and 435 nM.
Take `Nc1ncc(-c2cccc(S(N)(=O)=O)c2)c2scc(-c3ccc(F)c(Cl)c3)c12`: the GI50 was 5130 nM and the TGI was 15700 nM.
As for `C=C1C(=O)O[C@H]2[C@H]1CC/C(COC(=O)NCc1ccc(Cn3c(=O)sn(-c4ccccc4)c3=O)cc1)=C\CC[C@@]1(C)O[C@@H]21`, the GI50 is 1170 nM and the TGI was 2850 nM.
As to `CCCCCn1c(C)cc(/C=C\c2ccc3cc(C)ccc3[n+]2C)c1C`, the GI50 is 13.3 nM and the TGI came out at 52.3 nM.
For `CC(=O)c1nc2ccccc2n1CC(=O)c1cccc(Cl)c1`, the GI50 is 328 nM.
`Nc1c(C(=O)Nc2cccc(Cl)c2Cl)sc2nc3c(cc12)C(=O)CCC3`: the GI50 is 786 nM and the TGI was over 100000 nM.
In the same order, the values of `O=C(NC(=S)Nc1cc(Cl)ccc1O)c1cccc(Br)c1` are 5250 nM and over 100000 nM.

Values taken from PubChem BioAssay (NCI).
